Test results reported in US20150315241A1, “Antibiotic Peptides” (priority 2007, published 2015).
≈ marks a conversion by molar mass, not a printed value. Read-outs that look alike come from different tables or passages of the source. Where a SMILES comes first, the peptide text is derived from it. [ ]: non-standard residue; d: D form. Hyp = O=C(O)[C@@H]1C[C@@H](O)CN1; NMeL = CN[C@@H](CC(C)C)C(=O)O; Orn = NCCC[C@H](N)C(=O)O

Key:
Mycobacterium vaccae = format: cell-based
Protocol: The minimal inhibition concentrations (MIC) of the apidaecin-derived peptides and peptide-derivatives were determined by a growth inhibition assay using a serial peptide dilution in sterilized round-bottom 96-well plates (polystyrene, U-bottom, Greiner Bio-One GmbH) with a final volume of 100 μL per well. The bacteria, e.g., E. coli BL21 A1, were grown in nutrient broth (NB, Carl Roth GmbH+Co. KG, Karlsruhe, Germany) at 37° C. over night. To each well of the 96-well plate, 50 μL of the overnight culture adjusted to 5×10^6 CFU/mL in 1% TSB were added. Lyophilized peptides and peptidomimetics were dissolved in 1% TSB (tryptic soy broth) or water to give a final concentration of 250 μg/mL. Fifty μL of the peptide or peptidomimetics solution were added to the first well of a row on the plate and mixed. Fifty μL of the first well containing the peptide solution were transferred to the second well, mixed and again 50 μL transferred to the next well and so on. Thereby, a two-fold dilution series was obtained starting at 250 μg/mL in the first well down to 120 ng/mL in the 12th well of a row giving a final peptide or peptidomimetics concentration from 125 μg/mL (well 1) to 60 ng/mL (well 12). Plates were incubated at 37° C. for 20 hrs. The absorbance was measured at 595 nm using a TECAN micro plate spectrophotometer (Tecan, Germany). All peptides and peptidomimetics were measured in triplicates. Sterilized water was used as a negative control.
The bacteria strains were tested: • Eschericha coli 1103, 10233, BL 21 AI, DC 2, • Klebsiella pneumoniae 681, • Micrococcus luteus ATCC 10240, • Mycobacterium vaccae • Bactillus subtillis 347.

K. pneumonia 681 = format: cell-based, Klebsiella pneumoniae
Procedure, shortened: (§1)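 Two-fold serial dilution in 1% TSB, final 125 μg/mL to 60 ng/mL; inoculum 5×10^6 CFU/mL (before 1:1 mixing with peptide). Incubated 20 hrs at 37° C., growth read as absorbance at 595 nm, in triplicate with sterile water as negative control.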

S. typhi S5 = format: cell-based, Salmonella typhi; settings: S5, 20 h
Procedure, shortened: (§2)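 MIC by growth inhibition: overnight NB culture → 5×10^6 CFU/mL in 1% TSB; peptide 2-fold series, final 125 μg/mL to 60 ng/mL; 37° C., 20 hrs; OD595. n=3.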

E. coli 1103 = format: cell-based, Escherichia coli
Procedure, shortened: as §1

M. luteus ATCC 10240 = format: cell-based, Micrococcus luteus
Procedure, shortened: as §1

[1] = system: R. radiobatter ATCC 15955; assay: Growth inhibition assay (MIC); format: cell-based, Rhizobium radiobacter
Procedure, shortened: as §2

K. Pneumonia 123132 = assay: Growth inhibition assay (MIC); format: cell-based, Klebsiella pneumoniae
Procedure, shortened: as §2

[2] = system: K. Pneumonia K6, ATCC 700603; assay: Growth inhibition assay (MIC); format: cell-based, Klebsiella pneumoniae; settings: multidrug resistant strain; 1% TSB, 37° C., 20 hrs
Procedure, shortened: as §2

E. coli 45849 = assay: Growth inhibition assay (MIC); format: cell-based, Escherichia coli
Procedure, shortened: as §2

E. coli DC 2 = assay: Growth inhibition assay (MIC); format: cell-based, Escherichia coli; settings: 1% TSB, 37° C., 20 hrs
Procedure, shortened: as §1

E. coli BL 21 AI = assay: Growth inhibition assay (MIC); format: cell-based, Escherichia coli; settings: 1% TSB, 37° C., 20 hrs
Procedure, shortened: as §1

E. coli D31 = format: cell-based, Escherichia coli; settings: D31, 20 h
Procedure, shortened: as §2

B. subtilis 347 = format: cell-based, Bactillus subtillis
Procedure, shortened: as §1

[3] = system: S. enterica subsp. Enterica serovar. typhi G10215 ATCC 700408; format: cell-based, Salmonella enterica; settings: ATCC 700408, 20 h
Procedure, shortened: as §2

E. coli 10233 = format: cell-based, Escherichia coli; settings: 10233, 20 h
Procedure, shortened: as §1

in vitro = in vitro ADME, mouse; settings: 37° C.
Procedure, shortened: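 Peptide or peptidomimetic (0.5 mg/mL aqueous stock) incubated in 25% pooled mouse serum at 37 °C, sampled at 0–6 h, in duplicate. Proteins precipitated with 15% TCA; supernatants neutralized and analyzed by RP-HPLC with 0.1% TFA. Degradation products identified by MALDI-TOF/TOF-MS.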

[4] = multidrug resistant strain, 1% TSB, 37° C., 20 hrs

Molecule	MIC S. typhi S5 (S. typhi S5) [µg/mL]	MIC K. Pneumonia K6, ATCC 700603 [2] [µg/mL]	MIC E. coli DC 2 (E. coli DC 2) [µg/mL]	MIC E. coli BL 21 AI (E. coli BL 21 AI) [µg/mL]	MIC E. coli D31 (E. coli D31) [µg/mL]	MIC Mycobacterium vaccae (Mycobacterium vaccae; 20 h) [µg/mL]	MIC K. pneumonia 681 (K. pneumonia 681; 20 h) [µg/mL]	MIC E. coli 1103 (E. coli 1103; 1103, 20 h) [µg/mL]	MIC S. enterica subsp. Enterica serovar. typhi G10215 ATCC 700408 [3] [µg/mL]	MIC M. luteus ATCC 10240 (M. luteus ATCC 10240; ATCC 10240, 20 h) [µg/mL]	MIC B. subtilis 347 (B. subtilis 347; 347, 20 h) [µg/mL]	further results
CC[C@H](C)[C@H](NC(=O)[C@H](CCCNC(=N)N)NC(=O)[C@@H]1CCCN1C(=O)[C@H](Cc1c[nH]cn1)NC(=O)[C@@H]1CCCN1C(=O)[C@@H]1CCCN1C(=O)[C@H](CCCNC(=N)N)NC(=O)[C@@H]1CCCN1C(=O)[C@H](CCCN)NC(=O)[C@@H]1CCCN1C(=O)[C@@H](NC(=O)[C@H](Cc1ccc(O)cc1)NC(=O)[C@@H](NC(=O)[C@@H]1CCCN1C(=O)[C@H](CCCNC(=N)N)NC(=O)[C@H](CC(N)=O)NC(=O)[C@H](CC(N)=O)NC(=O)CN)C(C)C)[C@@H](C)CC)C(N)=O [compound 9] (H-GNNRPVYIP[Orn]PRPPHPRI-NH2)	2 (≈ 0.955 µM)	16 (≈ 7.64 µM)	1.95 (≈ 0.931 µM)	0.49 (≈ 0.234 µM)	16 (≈ 7.64 µM)							MIC Mycobacterium vaccae (Mycobacterium vaccae; 1% TSB, 37° C., 20 hrs): 125 µg/mL (≈ 59.7 µM); MIC K. pneumonia 681 (K. pneumonia 681; 1% TSB, 37° C., 20 hrs): 3.9 µg/mL (≈ 1.86 µM); MIC E. coli 1103 (E. coli 1103; 1% TSB, 37° C., 20 hrs): 3.9 µg/mL (≈ 1.86 µM); MIC M. luteus ATCC 10240 (M. luteus ATCC 10240; 1% TSB, 37° C., 20 hrs): 1.95 µg/mL (≈ 0.931 µM); MIC R. radiobatter ATCC 15955 ([1]; ATCC 15955, 20 h): <0.16 µg/mL; MIC K. Pneumonia 123132 (K. Pneumonia 123132; 20 h): 8 µg/mL (≈ 3.82 µM); MIC E. coli 45849 (E. coli 45849; 45849, 20 h): 1 µg/mL (≈ 0.478 µM); MIC B. subtilis 347 (B. subtilis 347; 1% TSB, 37° C., 20 hrs): >125 µg/mL
CC[C@H](C)[C@H](NC(=O)[C@H](CCCNC(=N)N)NC(=O)[C@@H]1CCCN1C(=O)[C@H](Cc1c[nH]cn1)NC(=O)[C@@H]1CCCN1C(=O)[C@@H]1CCCN1C(=O)[C@H](CCCNC(=N)N)NC(=O)[C@@H]1C[C@@H](O)CN1C(=O)[C@H](CCCNC(=N)N)NC(=O)[C@@H]1CCCN1C(=O)[C@@H](NC(=O)[C@H](Cc1ccc(O)cc1)NC(=O)[C@@H](NC(=O)[C@@H]1CCCN1C(=O)[C@H](CCCNC(=N)N)NC(=O)[C@H](CC(N)=O)NC(=O)[C@H](CC(N)=O)NC(=O)CN)C(C)C)[C@@H](C)CC)C(N)=O [compound 15] (H-GNNRPVYIPR[Hyp]RPPHPRI-NH2)	2 (≈ 0.93 µM)				64 (≈ 29.7 µM)	125 (≈ 58.1 µM)	3.9 (≈ 1.81 µM)	1.95 (≈ 0.906 µM)	2 (≈ 0.93 µM)	1.95 (≈ 0.906 µM)	>125	
CC[C@H](C)[C@H](NC(=O)[C@H](Cc1ccc(O)cc1)NC(=O)[C@@H](NC(=O)[C@@H]1CCCN1C(=O)[C@H](CCCNC(=N)N)NC(=O)[C@H](CC(N)=O)NC(=O)[C@H](CC(N)=O)NC(=O)[C@H](CCCN)NC(C)=O)C(C)C)C(=O)N1CCC[C@H]1C(=O)N[C@@H](CCC(N)=O)C(=O)N1CCC[C@H]1C(=O)N[C@@H](CCCNC(=N)N)C(=O)N1CCC[C@H]1C(=O)N1CCC[C@H]1C(=O)N[C@@H](Cc1c[nH]cn1)C(=O)N1CCC[C@H]1C(=O)N[C@@H](CCCNC(=N)N)C(=O)N(C)[C@@H](CC(C)C)C(N)=O [compound 32] (Ac-[Orn]NNRPVYIPQPRPPHPR[NMeL]-NH2)	32 (≈ 14.4 µM)	>128		15.63 (≈ 7.04 µM)	64 (≈ 28.8 µM)		>125	31.4 (≈ 14.1 µM)	8 (≈ 3.6 µM)	7.81 (≈ 3.52 µM)	>125	MIC E. coli 10233 (E. coli 10233): 31.25 µg/mL (≈ 14.1 µM); MIC R. radiobatter ATCC 15955 [1, 4]: 1.3 µg/mL (≈ 0.585 µM); MIC K. Pneumonia 123132 (K. Pneumonia 123132; [4]): >64 µg/mL; MIC E. coli 45849 (E. coli 45849; [4]): 8 µg/mL (≈ 3.6 µM); Half-life time (in vitro; 25% aqueous mouse serum): >6 h; half-life at 0.061 mg/mL (in vitro; mouse, 25% aqueous serum, read-out: half-life): > 6 h
CC[C@H](C)[C@H](NC(=O)[C@H](CCCNC(=N)N)NC(=O)[C@@H]1CCCN1C(=O)[C@H](Cc1c[nH]cn1)NC(=O)[C@@H]1CCCN1C(=O)[C@@H]1CCCN1C(=O)[C@H](CCCNC(=N)N)NC(=O)[C@@H]1CCCN1C(=O)[C@H](CCCNC(=N)N)NC(=O)[C@@H]1CCCN1C(=O)[C@@H](NC(=O)[C@H](Cc1ccc(O)cc1)NC(=O)[C@@H](NC(=O)[C@@H]1CCCN1C(=O)[C@H](CCCNC(=N)N)NC(=O)[C@H](CC(N)=O)NC(=O)[C@H](CC(N)=O)NC(=O)[C@H](CCCN)NC(C)=O)C(C)C)[C@@H](C)CC)C(N)=O [compound 65] (Ac-[Orn]NNRPVYIPRPRPPHPRI-NH2)			7.81 (≈ 3.49 µM)	0.98 (≈ 0.439 µM)		62.5 (≈ 28 µM)	7.81 (≈ 3.49 µM)	1.95 (≈ 0.873 µM)		0.98 (≈ 0.439 µM)	125 (≈ 55.9 µM)	
Ac-GNNRPVYIPRPRPPHPRL-NH2 [compound 67]			3.9	3.91		125	3.9	3.9		1.95	125	
